{"source": "paper PMC4514850", "about": "“A Novel TGR5 Activator WB403 Promotes GLP-1 Secretion and Preserves Pancreatic β-Cells in Type 2 Diabetic Mice” (PLoS ONE, 2015)", "key": {"MIN6 cells": {"system": "MIN6 cells", "test": "active GLP-1 secretion in MIN6 cells", "assay_type": "cell-based, mouse", "conditions": "Fig 1H", "description": "(§1) Endocrine differentiation was induced by seeding NCI-H716 cells in plates coated with Matrigel (Becton Dickinson). Cells were washed with RPMI-1640 medium without FBS and incubated in the same medium containing indicated compounds at 10 μmol/l. The condition medium was collected after 30 min. GLP-1 secretion in MIN6 or primary enterocytes was conducted similarly. To isolate primary enterocytes, ileum or colon was cut into 2 cm length, rinsed by PBS (pH7.2∼7.4) before dispersed in 10 mmol/l EDTA/PBS (pH7.4) for 15 min at room temperature, followed by pipetting up and down. Enterocytes were collected by filtration through a 70 μm cell strainer. To study the effect of WB403 on GLP-1 secretion in vivo, mice in group of three were fasted overnight and orally received 0, 50, 100 mg/kg of WB403 dispersed in 0.5% CMC with a DPP-4 inhibitor (5 mg/kg). There were 5 animals in each group. 2 g/kg glucose was administrated 30 min later and blood was collected 10 min after glucose challenge.\n(§2) The GLP-1 (active) ELISA kit was purchased from Millipore, and insulin ELISA kit was from Mercodia. For quantitative determination of cAMP, a competitive enzyme immunoassay kit from R&D system was used. All immunoassays were performed according to manufacturers’ instructions."}, "ICR mice": {"system": "ICR mice", "test": "GLP-1 secretion in vivo in ICR mice", "conditions": "oral 50, 100 mg/kg with DPP-4 inhibitor 5 mg/kg; blood 10 min after 2 g/kg glucose; n = 5", "description": "as §1, §2"}, "HFD/STZ mice": {"system": "HFD/STZ mice", "test": "8-week treatment of HFD/STZ mice", "assay_type": "in vivo", "description": "For generation of nongenetic mice model of type 2 diabetes, ICR mice were fed with high fat diet (HFD, with 60% fat, Research Diets) for three weeks, then fasted for 5 h before receiving a single dose of streptozotocin (STZ, Sigma) intraperitoneally (ip) at 80 mg/kg to induce partial insulin deficiency. […] Diabetes was assessed using conventional criteria. Mice with similar degree of hyperglycemia and body weight were randomized into various groups in order to get a similar average PBG in each group.\nDiabetic mice in group of four were treated by gavage with vehicle (0.5% carboxymethylcellulose, CMC, Sigma), WB403 50, 100 mg/kg or sitagliptin at 100 mg/kg daily for 4 weeks in db/db mice (n = 5 with chow diet), and 8 weeks in HFD/STZ mice (n = 8 with HFD, additional normal mice group with chow diet). During the entire dosing period, body weight, food intake and water intake were monitored three times per week, while FBG and PBG were measured weekly. Overnight fasted mice received an oral glucose challenge at 2 g/kg and postprandial 2 h blood glucose was measured. Animals were treated and assessed in the order of the vehicle, WB403 50, 100 mg/kg and sitagliptin 100 mg/kg group.\nFig 4 WB403 improved hyperglycemia of HFD/STZ mice. Mice were treated with different concentration of WB403, vehicle or sitagliptin. FBG (A) and PBG (B) were measured every week during the 8-week treatment period. (C, D) HbA1c levels in serum. Values are mean ± SEM (n = 8). *p<0.05, **p<0.01, ***p<0.001 vs. vehicle group."}, "db/db mice": {"system": "db/db mice", "test": "pancreas histology (H&E, IHC) of treated db/db mice", "assay_type": "in vivo", "description": "Analysis of islet cell mass was performed using conventional methods. In brief, mice were sacrificed by cervical dislocation. The body part of the pancreas was rapidly excised, fixed in 10% neutral buffered formalin solution for 24 h and embedded in paraffin, then sectioned at 5 μm ready for hematoxylin and eosin (H&E) staining and immunohistochemistry staining (IHC). The latter was carried out using rabbit anti-insulin polyclonal antibody (Cat. no. 4590, 1:600) and rabbit anti-glucagon monoclonal antibody (Cat. no. 8233s, 1:200) from Cell Signaling Technology.\nFig 5 WB403 preserved the mass of pancreatic β-cells and normal distribution of α and β-cells. (A) H&E staining of pancreas from db/db mice, and statistical result. Islets were sized by the Image J analysis software on alternated pancreatic sections spaced each by 100 μm. (B) Immunohistochemical analysis of pancreatic sections by anti-insulin antibody or anti-glucagon antibody. (C) H&E staining of pancreas from HFD/STZ mice, and statistical result. Results are representative islets from each group. 1–5 in the column graph on the right represents normal mice, diabetic mice treated with vehicle, WB403 50 mg/kg, WB403 100 mg/kg, sitagliptin 100 mg/kg respectively (n = 5). *p<0.05, **p<0.01, ***p<0.001 vs. diabetes-vehicle group."}, "hGPR40": {"biological_target": "T1, hGPR40 (Homo sapiens, UniProt O14842)", "T1 construct": "expressed in transfected cells", "T1 sequence (O14842 whole entry)": "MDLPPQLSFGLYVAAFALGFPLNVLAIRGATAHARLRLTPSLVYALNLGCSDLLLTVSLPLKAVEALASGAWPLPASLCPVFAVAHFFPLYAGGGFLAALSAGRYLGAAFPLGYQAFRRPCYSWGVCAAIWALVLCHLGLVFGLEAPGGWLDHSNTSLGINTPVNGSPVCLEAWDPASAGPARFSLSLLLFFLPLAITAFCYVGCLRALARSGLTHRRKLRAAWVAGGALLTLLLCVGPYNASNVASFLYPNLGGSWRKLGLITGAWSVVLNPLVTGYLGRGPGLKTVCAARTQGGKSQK", "test": "GPR40-dependent calcium mobilization in 293-GPR40 stable cells", "assay_type": "cell-based", "conditions": "5, 10, 50 μmol/l", "description": "For human TGR5 luciferase (luc) assay, 293T cells were co-transfected with pCRE-luc, pTGR5 (kind gift from Prof. Johan Auwerx, Ecole Polytechnique Fédérale de Lausanne, Lausanne, Switzerland) and pRenilla (Promega, USA). WB403 was added 5 h later. Cells were harvested after 16 h and subjected to luciferase analysis on Lumistar Optima chemiluminescent detector (BMG labtech, Germany). For cAMP testing, 293T cells transiently transfected with pTGR5 or pGPR119 (GeneCopoeia, USA) were washed by FBS-free DMEM, and stimulated with WB403 in FBS-free DMEM containing 3-isobutyl-1-methyl-xanthine (IBMX, Sigma). Cell lysates were collected 30 min later and used for cAMP ELISA assay. FLIPR Calcium 5 assay kit (Molecular Devices, USA) was used for calcium mobilization assay. 293-GPR40 stable cells (kindly provided by Prof. Naiming Zhou of Zhejiang University, Hanzhou, China) or 293 cells transient transfected with GPR120 were seeded at 50,000 cells per well in black-walled clear-bottomed 96-well plates (Costar). An equal volume of loading buffer containing Fluo 4-AM was added the following day and cells were incubated for 1 h before stimulated with compounds. Increase of the intracellular Ca^2+ concentration was monitored by Flexstation 3 system (Molecular Devices, USA).\nFig 6 Effect of WB403 on GPCRs related to GLP-1 secretion. (A) GPCR expression in human NCI-H716 and mouse MIN6 cells. […]"}, "[1]": {"conditions": "HFD/STZ mice, 50, 100 mg/kg daily, from first week through 8-week treatment"}}, "note": "“Also recorded” adds a separate entry of the source.", "data": [{"smiles": "CCc1cc(-c2nc(C)c(COCc3ccc(Br)cc3)s2)ccn1", "note": "[WB403, 4-(5-((4-bromobenzyloxy)-methyl)-4-methylthiazol-2-yl)-2-ethylpyridine]", "values": [{"measurement": "GLP-1 stimulation in MIN6 cells", "setting": "MIN6 cells", "result": "GLP-1 stimulation effect of WB403 was confirmed"}, {"measurement": "GLP-1 concentration in serum", "setting": "ICR mice", "result": "significantly increased"}, {"measurement": "serum HbA1c levels vs vehicle", "setting": "HFD/STZ mice; HFD/STZ mice, 8-week treatment", "result": "decreased significantly"}, {"measurement": "FBG vs vehicle", "setting": "HFD/STZ mice; [1]", "result": "significantly decreased"}, {"measurement": "PBG vs vehicle", "setting": "HFD/STZ mice; [1]", "result": "significantly decreased"}, {"measurement": "islet area vs vehicle", "setting": "db/db mice; H&E, after 4-week treatment", "result": "bigger islet area as compared to the vehicle mice, though no significant difference was found"}, {"measurement": "α-cell and β-cell distribution in islets", "setting": "db/db mice; IHC anti-insulin / anti-glucagon", "result": "significantly reduced α-cell in the islet core area and restored the normal cell distribution pattern"}, {"measurement": "hGPR40-Ca2+ activation (calcium mobilization)", "setting": "hGPR40", "result": "neither did it exhibit significant effect; also recorded: no significant effect"}]}]}
